Earlier results as cited in patent US20100047343A1, “MULTIPARTICULATE FORMULATION HAVING TRAMADOL IN IMMEDIATE AND CONTROLLED RELEASE FORM” (The University of Kansas, priority 2006, published 2010).
Where a name gives a salt, the structure may show the parent alone. Read-outs that look alike come from different tables or passages of the source.

Experiments:
[1] = for accumulation: multiple dose treatment with tramadol HCl; for half-life: single oral dose of 100 mg
[2] = single oral dose of rapid release tramadol HCl (100 mg)
[3] = after oral administration of ULTRAM

SMILES	accumulation [1]	half-life [1]	duration of the analgesic effect [2]	solubility in water (24° C.)	density of saturated solution (37° C.)	solubility in water (37° C.)	viscosity (sat'd. sol.) (37° C.)	bioavailability [1, 3]	time to peak serum concentrations [1, 3]
CN(C)C[C@H]1CCCC[C@]1(O)c1cccc(O)c1 [M1 derivative]	approximately 2 fold	9 h							
COc1cccc(C2(O)CCCCC2CN(C)C)c1 (centres unmarked) [tramadol HCl]			about 6 hours	790 mg/mL	1.1079	840 mg/mL	86.5 cp	68%	≤ 2 h
COc1cccc(C2(O)CCCCC2CN(C)C)c1 (centres unmarked) [tramadol]	approximately 2 fold	5.1 h							
